{"source": "the supplement of paper PMC10307832", "assay_in_all_cases": "relative viability (nuclei count vs DMSO), 5 days (fraction); higher = more cells survive", "key": {"[1]": {"compound": "CCc1cnn2c(NCc3ccc[n+]([O-])c3)cc(N3CCCC[C@H]3CCO)nc12 [Dinaciclib] + CC(C)C[C@H](NC(=O)[C@H](Cc1ccccc1)NC(=O)c1cnccn1)B(O)O [Bortezomib] (partner 0.002 µM)", "method_in_brief": "(§1)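 Relative viability divides the nuclei count in treated wells by that in vehicle wells. Lung cancer cell lines were seeded in 1536-well plates, dosed by pin tool the next day, and fixed and stained after 5 days in one step with final 0.05% Triton X-100, 1% formaldehyde and 1 ug/ml Hoechst. Dosing was a single drug or a fixed anchor-drug dose plus five library-drug doses (not always all listed) in √10 steps, and values are medians of duplicate plates imaged at 4×.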"}, "[2]": {"compound": "CCc1cnn2c(NCc3ccc[n+]([O-])c3)cc(N3CCCC[C@H]3CCO)nc12 [Dinaciclib] + CCNC(=O)c1noc(-c2cc(C(C)C)c(O)cc2O)c1-c1ccc(CN2CCOCC2)cc1 [Luminespib] (partner 0.01 µM)", "method_in_brief": "as §1"}, "[3]": {"compound": "CCc1cnn2c(NCc3ccc[n+]([O-])c3)cc(N3CCCC[C@H]3CCO)nc12 [Dinaciclib] + COc1cc2c(Oc3ccc(NC(=O)C4(C(=O)Nc5ccc(F)cc5)CC4)cc3F)ccnc2cc1OCCCN1CCOCC1 [Foretinib] (partner 0.25 µM)", "method_in_brief": "as §1"}, "[4]": {"compound": "CCc1cnn2c(NCc3ccc[n+]([O-])c3)cc(N3CCCC[C@H]3CCO)nc12 [Dinaciclib] + Cc1cc(Nc2cc(N3CCN(C)CC3)nc(Sc3ccc(NC(=O)C4CC4)cc3)n2)n[nH]1 [Tozasertib] (partner 0.1 µM)", "method_in_brief": "as §1"}, "[5]": {"compound": "CCc1cnn2c(NCc3ccc[n+]([O-])c3)cc(N3CCCC[C@H]3CCO)nc12 [Dinaciclib] + O=C(CCCCCCC(=O)Nc1ccccc1)NO [Vorinostat] (partner 1 µM)", "method_in_brief": "as §1"}}}
{"cell line": "201T", "values": [{"measurement": "relative viability", "setting": "[1]; first compound 0.009487 µM", "result": 1.15}, {"measurement": "relative viability", "setting": "[1]; first compound 0.03 µM", "result": 0.718}, {"measurement": "relative viability", "setting": "[1]; first compound 0.09487 µM", "result": 0.321}, {"measurement": "relative viability", "setting": "[1]; first compound 0.3 µM", "result": 0.281}, {"measurement": "relative viability", "setting": "[2]; first compound 0.009487 µM", "result": 1.2}, {"measurement": "relative viability", "setting": "[2]; first compound 0.03 µM", "result": 0.342}, {"measurement": "relative viability", "setting": "[2]; first compound 0.09487 µM", "result": 0.24}, {"measurement": "relative viability", "setting": "[2]; first compound 0.3 µM", "result": 0.256}, {"measurement": "relative viability", "setting": "[3]; first compound 0.009487 µM", "result": 1.19}, {"measurement": "relative viability", "setting": "[3]; first compound 0.03 µM", "result": 0.174}, {"measurement": "relative viability", "setting": "[3]; first compound 0.09487 µM", "result": 0.171}, {"measurement": "relative viability", "setting": "[3]; first compound 0.3 µM", "result": 0.15}, {"measurement": "relative viability", "setting": "[4]; first compound 0.009487 µM", "result": 0.915}, {"measurement": "relative viability", "setting": "[4]; first compound 0.03 µM", "result": 0.293}, {"measurement": "relative viability", "setting": "[4]; first compound 0.09487 µM", "result": 0.274}, {"measurement": "relative viability", "setting": "[4]; first compound 0.3 µM", "result": 0.263}, {"measurement": "relative viability", "setting": "[5]; first compound 0.009487 µM", "result": 1.24}, {"measurement": "relative viability", "setting": "[5]; first compound 0.03 µM", "result": 0.74}, {"measurement": "relative viability", "setting": "[5]; first compound 0.09487 µM", "result": 0.214}, {"measurement": "relative viability", "setting": "[5]; first compound 0.3 µM", "result": 0.213}]}
{"cell line": "A-427", "values": [{"measurement": "relative viability", "setting": "[1]; first compound 0.009487 µM", "result": 0.969}, {"measurement": "relative viability", "setting": "[1]; first compound 0.03 µM", "result": 0.487}, {"measurement": "relative viability", "setting": "[1]; first compound 0.09487 µM", "result": 0.0789}, {"measurement": "relative viability", "setting": "[1]; first compound 0.3 µM", "result": 0.0623}, {"measurement": "relative viability", "setting": "[2]; first compound 0.009487 µM", "result": 0.554}, {"measurement": "relative viability", "setting": "[2]; first compound 0.03 µM", "result": 0.0941}, {"measurement": "relative viability", "setting": "[2]; first compound 0.09487 µM", "result": 0.0692}, {"measurement": "relative viability", "setting": "[2]; first compound 0.3 µM", "result": 0.0782}, {"measurement": "relative viability", "setting": "[3]; first compound 0.009487 µM", "result": 0.955}, {"measurement": "relative viability", "setting": "[3]; first compound 0.03 µM", "result": 0.117}, {"measurement": "relative viability", "setting": "[3]; first compound 0.09487 µM", "result": 0.0874}, {"measurement": "relative viability", "setting": "[3]; first compound 0.3 µM", "result": 0.0871}, {"measurement": "relative viability", "setting": "[4]; first compound 0.009487 µM", "result": 0.236}, {"measurement": "relative viability", "setting": "[4]; first compound 0.03 µM", "result": 0.0917}, {"measurement": "relative viability", "setting": "[4]; first compound 0.09487 µM", "result": 0.0666}, {"measurement": "relative viability", "setting": "[4]; first compound 0.3 µM", "result": 0.0775}, {"measurement": "relative viability", "setting": "[5]; first compound 0.009487 µM", "result": 0.699}, {"measurement": "relative viability", "setting": "[5]; first compound 0.03 µM", "result": 0.216}, {"measurement": "relative viability", "setting": "[5]; first compound 0.09487 µM", "result": 0.111}, {"measurement": "relative viability", "setting": "[5]; first compound 0.3 µM", "result": 0.117}]}
{"cell line": "ABC-1", "values": [{"measurement": "relative viability", "setting": "[1]; first compound 0.009487 µM", "result": 0.231}, {"measurement": "relative viability", "setting": "[1]; first compound 0.03 µM", "result": 0.179}, {"measurement": "relative viability", "setting": "[1]; first compound 0.09487 µM", "result": 0.167}, {"measurement": "relative viability", "setting": "[1]; first compound 0.3 µM", "result": 0.157}, {"measurement": "relative viability", "setting": "[2]; first compound 0.009487 µM", "result": 0.581}, {"measurement": "relative viability", "setting": "[2]; first compound 0.03 µM", "result": 0.209}, {"measurement": "relative viability", "setting": "[2]; first compound 0.09487 µM", "result": 0.173}, {"measurement": "relative viability", "setting": "[2]; first compound 0.3 µM", "result": 0.178}, {"measurement": "relative viability", "setting": "[3]; first compound 0.009487 µM", "result": 0.876}, {"measurement": "relative viability", "setting": "[3]; first compound 0.03 µM", "result": 0.166}, {"measurement": "relative viability", "setting": "[3]; first compound 0.09487 µM", "result": 0.126}, {"measurement": "relative viability", "setting": "[3]; first compound 0.3 µM", "result": 0.106}, {"measurement": "relative viability", "setting": "[4]; first compound 0.009487 µM", "result": 0.199}, {"measurement": "relative viability", "setting": "[4]; first compound 0.03 µM", "result": 0.174}, {"measurement": "relative viability", "setting": "[4]; first compound 0.09487 µM", "result": 0.11}, {"measurement": "relative viability", "setting": "[4]; first compound 0.3 µM", "result": 0.0868}, {"measurement": "relative viability", "setting": "[5]; first compound 0.009487 µM", "result": 0.845}, {"measurement": "relative viability", "setting": "[5]; first compound 0.03 µM", "result": 0.419}, {"measurement": "relative viability", "setting": "[5]; first compound 0.09487 µM", "result": 0.297}, {"measurement": "relative viability", "setting": "[5]; first compound 0.3 µM", "result": 0.246}]}
{"cell line": "BEN", "values": [{"measurement": "relative viability", "setting": "[1]; first compound 0.009487 µM", "result": 0.817}, {"measurement": "relative viability", "setting": "[1]; first compound 0.03 µM", "result": 0.497}, {"measurement": "relative viability", "setting": "[1]; first compound 0.09487 µM", "result": 0.159}, {"measurement": "relative viability", "setting": "[1]; first compound 0.3 µM", "result": 0.247}, {"measurement": "relative viability", "setting": "[2]; first compound 0.009487 µM", "result": 0.323}, {"measurement": "relative viability", "setting": "[2]; first compound 0.03 µM", "result": 0.221}, {"measurement": "relative viability", "setting": "[2]; first compound 0.09487 µM", "result": 0.174}, {"measurement": "relative viability", "setting": "[2]; first compound 0.3 µM", "result": 0.133}, {"measurement": "relative viability", "setting": "[3]; first compound 0.009487 µM", "result": 0.866}, {"measurement": "relative viability", "setting": "[3]; first compound 0.03 µM", "result": 0.845}, {"measurement": "relative viability", "setting": "[3]; first compound 0.09487 µM", "result": 0.153}, {"measurement": "relative viability", "setting": "[3]; first compound 0.3 µM", "result": 0.176}, {"measurement": "relative viability", "setting": "[4]; first compound 0.009487 µM", "result": 0.568}, {"measurement": "relative viability", "setting": "[4]; first compound 0.03 µM", "result": 0.638}, {"measurement": "relative viability", "setting": "[4]; first compound 0.09487 µM", "result": 0.268}, {"measurement": "relative viability", "setting": "[4]; first compound 0.3 µM", "result": 0.348}, {"measurement": "relative viability", "setting": "[5]; first compound 0.009487 µM", "result": 0.67}, {"measurement": "relative viability", "setting": "[5]; first compound 0.03 µM", "result": 0.63}, {"measurement": "relative viability", "setting": "[5]; first compound 0.09487 µM", "result": 0.345}, {"measurement": "relative viability", "setting": "[5]; first compound 0.3 µM", "result": 0.308}]}
